{
  "source": "patent US20220170028A1",
  "about": "“NOVEL INTERLEUKIN-2 VARIANTS AND BIFUNCTIONAL FUSION MOLECULES THEREOF” (Cugene Inc, priority 2019, published 2022)",
  "key": {"Treg cells": {"test_system": "Treg cells", "assay": "Dose-response pharmacodynamics of Treg cells in mice after a single injection (Example 10)", "type": "in vivo, mouse", "description": "Following a single subcutaneous administration of vehicle (PBS) or P-0511 (1, 0.3, 0.1, or 0.03 mg/kg) to female Balb/C mice (n=5/group), peripheral blood was collected on day −2 as baseline, and post dose on days 3, 5, and 7. On day 7, mice were sacrificed, and spleens were harvested. Blood lymphocyte phenotyping, proliferation and expansion were measured by flow cytometry at each timepoint using fresh whole blood."}, "[1]": {"test_system": "CD4+/Foxp3+/CD25+ Treg, CD4+/Foxp3-/CD25+ Teff and CD4+/Foxp3-/CD25- naive T cells", "assay": "STAT5 phosphorylation in three CD4+ T cell subsets (Treg, CD4 effector, CD4 naive), human PBMC", "type": "cell-based", "source_text": "In addition to being assessed for their ability to differentially stimulate Stat5 phosphorylation in CD4 positive Treg (CD4+/Foxp3+/CD25^high) versus Tconv (CD4+/Foxp3−/CD25^low) cells, two variants, P-0511 and P-0512, were further assayed for their ability to stimulate other effector T and NK cells, including CD4 positive Teff (CD4+/Foxp3-/CD25+), CD8 cytotoxic T effector and NK cells in comparison to wild-type IL-2 (P-0250) and three IL-2 benchmark molecules containing V91K, N88R, N88D respectively.\nAfter human PBMC Cells were treated with serial dilutions of test compounds, fixed and permeabilized, washed, and stained with a mixture of anti-CD25-PE, anti-FOXP3-APC, anti-pSTAT5-FITC, and anti-CD4-PerCP-Cy5.5 antibodies, the flow cytometry analysis was gated into CD4+/Foxp3+/CD25+, CD4+/Foxp3−/CD25+, CD4+/Foxp3−/CD25− groups for the Treg, CD4 effector, and CD4 naive T cell subsets, respectively. Data are expressed as a percent of pStat5 positive cells in gated population and illustrated in FIG. 9."}, "[2]": {"test_system": "KLH-induced DTH in Balb/C mice", "assay": "KLH-induced delayed-type hypersensitivity (DTH) mouse model, ear thickness", "type": "in vivo", "conditions": "for inhibition of ear inflammation (separate study): Q5D", "description": "The ability of Treg cells induced by IL-2 variants to suppress T cell antigen-driven inflammation in vivo was assessed in a model of delayed-type hypersensitivity (DTH). Female Balb/C mice (7-week old) were acclimated in house for 7 days and randomized into groups. Subcutaneous administration of vehicle (PBS), P-0511 at either 0.1 mg/kg or 0.3 mg/kg was initiated on day −2 and was given either once every 3 days (Q3D) for three injections or once every 5 days (Q5D) for two injections. Mice were then sensitized with a subcutaneous administration of 100 μg keyhole limpet hemocyanin (KLH) in 200 μl saline on day 0. For Q3D dosing, two more subcutaneous injections of PBS or P-0511 (0.1 or 0.3 mg/kg) were administered on days 1, and 4; for Q5D dosing, one additional s.c. injection of PBS, 0.1 or 0.3 mg/kg P-0511 was administered on day 3. Mice received an intradermal challenge of KLH (5 μg in 10 μl saline) in right ear on day 5. Right ear thickness was measured using a caliper on day 5 prior KLH challenge and daily from day 6 to day 9 corresponding to 24 h, 48 h, 72 h and 96 h post KLH challenge. One group of mice also received 5 mg/kg daily i.p. treatment of dexamethasone from day 5 to day 8 as a positive control.\nKinetics of the DTH response using the change in ear thickness relative to baseline values (Δ ear thickness) at various times after KLH challenge was illustrated in FIG. 23."}, "[3]": {"test_system": "STAT5 phosphorylation in CD4+ Tconv cells", "assay": "STAT5 phosphorylation in CD4+ Tconv cells, human PBMC assay by FACS", "type": "cell-based", "how_it_was_run": "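Donor PBMCs were starved in serum-free buffer at 4° C for 1 h, then 2×10^5 cells were exposed to serial dilutions of IL-2 variants for 30 min at 37° C. After fixation and permeabilization they were stained for CD4, CD25, FOXP3 and pSTAT5. Read-out is percent pSTAT5+ cells among CD4+/Foxp3+/CD25^high (Treg) or CD4+/Foxp3−/CD25^low (Tconv) cells by flow cytometry.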"}, "[4]": {"test_system": "CD4+ Treg vs CD4+ Tconv cells", "assay": "STAT5 phosphorylation, selectivity / activity profile Treg versus CD4+ Tconv cells, human PBMC", "type": "cell-based", "how_it_was_run": "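Fresh human PBMC from a healthy donor, serum-starved 1 h at 4 °C, then exposed to serial dilutions of IL-2 variants for 30 min at 37 °C. After fixation/permeabilization, cells stained for CD4, CD25, FOXP3 and pSTAT5 and analysed by flow cytometry. Treg (CD4+/Foxp3+/CD25high) and Tconv (CD4+/Foxp3−/CD25low) gated; read-out is percent pSTAT5-positive cells.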"}},
  "note": "Read-outs that look alike come from different tables or passages of the source.",
  "data": [
    {"substance": "P-0511: IL-2 L19H/S125I/Q126E Fc fusion, SEQ ID NO: 213", "values": [
      {"measurement": "proliferation of Treg cells (percentage of Ki67 positive cells)", "setting": "Treg cells; 0.03 mg/kg single s.c., Balb/C mice", "result": "minimal effect"},
      {"measurement": "Treg/Tconv ratio at peak, based on cell count", "setting": "Treg cells; 0.1 mg/kg", "result": 0.06},
      {"measurement": "Treg as percentage of total lymphocytes at the peak", "setting": "Treg cells; 0.1 mg/kg single dose", "result": 1.4, "unit": "%"},
      {"measurement": "Treg/Tconv ratio at peak, based on cell count", "setting": "Treg cells; 0.3 mg/kg", "result": 0.18},
      {"measurement": "Treg as percentage of total lymphocytes at the peak", "setting": "Treg cells; 0.3 mg/kg single dose", "result": 3.1, "unit": "%"},
      {"measurement": "Treg/Tconv ratio at peak, based on cell count", "setting": "Treg cells; 1 mg/kg", "result": 0.27},
      {"measurement": "Treg as percentage of total lymphocytes at the peak", "setting": "Treg cells; 1 mg/kg single dose", "result": 4.5, "unit": "%"},
      {"measurement": "proliferation of Treg cells (percentage of Ki67 positive cells)", "setting": "Treg cells; 1, 0.3, or 0.1 mg/kg single s.c., Balb/C mice", "result": "dose-dependent increases"},
      {"measurement": "expression of Treg functional markers CD25 and FoxP3 (MFI)", "setting": "Treg cells; single s.c. dose, Balb/C mice", "result": "increased dose-dependently"},
      {"measurement": "pSTAT5 activity profile in Treg, Teff and naive CD4 T cell subsets (in words)", "setting": "[1]", "result": "preferential activation of Treg over Teff"},
      {"measurement": "pSTAT5 activity profile in Treg, Teff and naive CD4 T cell subsets (in words)", "setting": "[1]; listed as P-511", "result": "superior to both Benchmark-2 and -3"},
      {"measurement": "suppression of DTH ear swelling", "setting": "[2]; 0.1 mg/kg s.c., Q3D and Q5D", "result": "did not reach statistical significance at most of the time points"},
      {"measurement": "inhibition of ear inflammation (separate study)", "setting": "[2]; 0.1 mg/kg", "result": "mild"},
      {"measurement": "inhibition of ear inflammation (separate study)", "setting": "[2]; 0.3 mg/kg", "result": "Intermediate"},
      {"measurement": "inhibition of ear inflammation (separate study)", "setting": "[2]; 1 mg/kg", "result": "strong resistance to KLH-induced DTH"},
      {"measurement": "STAT5 phosphorylation activity in CD4+ Tconv cells (in words)", "setting": "[3]", "result": "nearly completely abolished"},
      {"measurement": "activity profile / selectivity window Treg over CD4+ Tconv (in words)", "setting": "[4]", "result": "further widened the Treg selectivity window"},
      {"measurement": "Treg Selectivity", "setting": "[4]; Isoleucine-125 constructs", "result": "Yes"}
    ]}
  ]
}
